Several values for one entry are separate records, joined by “and”; a condition that tells them apart may be missing. Equal entries are not always repeated. Toxic doses and inconclusive results are not listed.
Test system: BDF1 mice, B16 melanoma ip, median survival T/C
Experiment: NCI In Vivo Anticancer Drug Screen. Data for tumor model B16 Melanoma (intraperitoneal) in B6D2F1 (BDF1) mice
Details: endpoint: median survival time, higher = longer survival
Method in brief: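 Mice with transplantable tumors; drug vs vehicle groups; endpoint survival or tumor size; value = T/C.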

[1] = dose: 25.0 mg/kg/injection, schedule: Q01DX009 (ip), vehicle: Klucel (hydroxypropylcellulose) (HPC)
[2] = dose: 50.0 mg/kg/injection, schedule: Q01DX009 (ip), vehicle: Klucel (hydroxypropylcellulose) (HPC)
[3] = dose: 100.0 mg/kg/injection, schedule: Q01DX009 (ip), vehicle: Klucel (hydroxypropylcellulose) (HPC)
[4] = dose: 200.0 mg/kg/injection, schedule: Q01DX009 (ip), vehicle: Klucel (hydroxypropylcellulose) (HPC)
[5] = dose: 3.12 mg/kg/injection, schedule: Q01DX009 (ip), vehicle: saline
[6] = dose: 6.25 mg/kg/injection, schedule: Q01DX009 (ip), vehicle: saline
[7] = dose: 12.5 mg/kg/injection, schedule: Q01DX009 (ip), vehicle: saline
[8] = dose: 25.0 mg/kg/injection, schedule: Q01DX009 (ip), vehicle: saline
[9] = dose: 50.0 mg/kg/injection, schedule: Q01DX009 (ip), vehicle: saline
[10] = dose: 100.0 mg/kg/injection, schedule: Q01DX009 (ip), vehicle: saline
[11] = dose: 6.25 mg/kg/injection, schedule: Q01DX009 (ip), vehicle: saline with Tween-80
[12] = dose: 6.25 mg/kg/injection, schedule: Q01DX009 (ip), vehicle: Klucel (hydroxypropylcellulose) (HPC)
[13] = dose: 12.5 mg/kg/injection, schedule: Q01DX009 (ip), vehicle: Klucel (hydroxypropylcellulose) (HPC)
[14] = dose: 6.25 mg/kg/injection, schedule: Q04DX003 (ip), vehicle: Klucel (hydroxypropylcellulose) (HPC)
[15] = dose: 12.5 mg/kg/injection, schedule: Q04DX003 (ip), vehicle: Klucel (hydroxypropylcellulose) (HPC)
[16] = dose: 25.0 mg/kg/injection, schedule: Q04DX003 (ip), vehicle: Klucel (hydroxypropylcellulose) (HPC)
[17] = dose: 50.0 mg/kg/injection, schedule: Q01DX009 (ip), vehicle: saline with Tween-80
[18] = dose: 100.0 mg/kg/injection, schedule: Q01DX009 (ip), vehicle: saline with Tween-80

COc1cccc(C(O)c2ccncc2C)c1OC (stereo not drawn)
T/C (dose: 25.0 mg/kg/injection, schedule: Q01DX009 (ip), vehicle: water): 98 % of control
T/C (dose: 50.0 mg/kg/injection, schedule: Q01DX009 (ip), vehicle: water): 98 % of control
T/C (dose: 100.0 mg/kg/injection, schedule: Q01DX009 (ip), vehicle: water): 101 % of control
T/C (dose: 200.0 mg/kg/injection, schedule: Q01DX009 (ip), vehicle: water): 104 % of control

CC1=CCC(C(C)C)C=C1 (stereo not drawn)
T/C [1]: 92 % of control
T/C [2]: 94 % of control
T/C [3]: 94 % of control
T/C [4]: 89 % of control

CN(C)CCCC1(C#N)c2ccccc2CCc2ccccc21
T/C [5]: 110 % of control
T/C [6]: 97 % of control
T/C [7]: 100 % of control
T/C [8]: 110 % of control

Nc1nc2c(ncn2C2OC(CO)C(O)C2N)c(=O)[nH]1 (stereo not drawn)
T/C [5]: 95 % of control and 110 % of control
T/C [6]: 101 % of control and 102 % of control and 104 % of control
T/C [7]: 106 % of control and 107 % of control and 110 % of control
T/C (dose: 25.0 mg/kg/injection, schedule: Q01DX005 (ip), vehicle: saline with Tween-80): 104 % of control
T/C [8]: 89 % of control and 101 % of control and 112 % of control
T/C (dose: 35.0 mg/kg/injection, schedule: Q01DX005 (ip), vehicle: saline with Tween-80): 104 % of control
T/C [9]: 89 % of control and 101 % of control
T/C (dose: 55.0 mg/kg/injection, schedule: Q01DX005 (ip), vehicle: saline with Tween-80): 95 % of control
T/C (dose: 80.0 mg/kg/injection, schedule: Q01DX005 (ip), vehicle: saline with Tween-80): 104 % of control
T/C [10]: 96 % of control

CCC[CH2][Sn](=[S])[CH2]CCC
T/C (dose: 0.78 mg/kg/injection, schedule: Q01DX009 (ip), vehicle: saline): 98 % of control
T/C (dose: 1.56 mg/kg/injection, schedule: Q01DX009 (ip), vehicle: saline): 102 % of control
T/C (dose: 6.25 mg/kg/injection, schedule: Q01DX009 (ip), vehicle: other): 97 % of control
T/C [11]: 109 % of control
T/C [6]: 107 % of control
T/C (dose: 6.25 mg/kg/injection, schedule: Q04DX003 (ip), vehicle: other): 105 % of control

Cc1cc(=O)n2c3c(c(N)ccc13)OC2
T/C [3]: 100 % of control
T/C [4]: 92 % of control

Cc1ccc(S(=O)(=O)Nc2ncc([N+](=O)[O-])s2)cc1
T/C (dose: 12.5 mg/kg/injection, schedule: Q04DX003 (ip), vehicle: saline with Tween-80): 102 % of control
T/C (dose: 25.0 mg/kg/injection, schedule: Q04DX003 (ip), vehicle: saline with Tween-80): 109 % of control
T/C (dose: 50.0 mg/kg/injection, schedule: Q04DX003 (ip), vehicle: saline with Tween-80): 109 % of control

CO[C@H]1C[C@@H]2CC[C@@H](C)[C@@](O)(O2)C(=O)C(=O)N2CCCC[C@H]2C(=O)O[C@H]([C@H](C)C[C@@H]2CC[C@@H](O)[C@H](OC)C2)CC(=O)[C@H](C)C=C(C)[C@@H](O)[C@@H](OC)C(=O)[C@H](C)C[C@H](C)/C=C/C=C/C=C1C
T/C (dose: 190.0 mg/kg/injection, schedule: Q01DX001 (ip), vehicle: saline with Tween-80): 159 % of control
T/C (dose: 200.0 mg/kg/injection, schedule: Q01DX009 (ip), vehicle: saline with Tween-80): 110 % of control
T/C (dose: 380.0 mg/kg/injection, schedule: Q01DX001 (ip), vehicle: saline with Tween-80): 112 % of control
T/C (dose: 400.0 mg/kg/injection, schedule: Q01DX009 (ip), vehicle: saline with Tween-80): 109 % of control
T/C (dose: 760.0 mg/kg/injection, schedule: Q01DX001 (ip), vehicle: saline with Tween-80): 123 % of control

CNCCCN1c2ccccc2CCc2ccccc21
T/C [5]: 105 % of control
T/C [12]: 106 % of control
T/C [6]: 96 % of control
T/C [13]: 101 % of control
T/C [7]: 102 % of control
T/C [1]: 100 % of control
T/C [8]: 87 % of control
T/C [2]: 86 % of control
T/C [9]: 101 % of control

CCOC(=O)N1c2ccccc2C=CC1OCC (stereo not drawn)
T/C [14]: 105 % of control
T/C [15]: 105 % of control
T/C [16]: 89 % of control and 105 % of control

N#CCN1CCCN(CC#N)C1
T/C (dose: 75.0 mg/kg/injection, schedule: Q01DX009 (ip), vehicle: Klucel (hydroxypropylcellulose) (HPC)): 96 % of control

N#CC(Cc1ccccc1Cl)(Cc1ccccc1Cl)c1ccccc1
T/C [3]: 100 % of control
T/C [4]: 105 % of control
T/C (dose: 400.0 mg/kg/injection, schedule: Q01DX009 (ip), vehicle: Klucel (hydroxypropylcellulose) (HPC)): 105 % of control

O=C1C2C(C(=O)N1c1ccc(OCc3ccccc3)cc1)C1c3ccccc3C2C2CCCCN21 (stereo not drawn)
T/C (dose: 3.13 mg/kg/injection, schedule: Q01DX009 (ip), vehicle: water): 103 % of control
T/C (dose: 6.25 mg/kg/injection, schedule: Q01DX009 (ip), vehicle: water): 98 % of control
T/C (dose: 12.5 mg/kg/injection, schedule: Q01DX009 (ip), vehicle: water): 104 % of control

CCCC(=O)OCC1OC(n2cnc3c(=S)nc(N)[nH]c32)C(OC(=O)CCC)C1OC(=O)CCC (stereo not drawn)
T/C (dose: 0.78 mg/kg/injection, schedule: Q01DX009 (ip), vehicle: Klucel (hydroxypropylcellulose) (HPC)): 106 % of control
T/C (dose: 1.56 mg/kg/injection, schedule: Q01DX009 (ip), vehicle: Klucel (hydroxypropylcellulose) (HPC)): 112 % of control
T/C (dose: 3.12 mg/kg/injection, schedule: Q01DX009 (ip), vehicle: Klucel (hydroxypropylcellulose) (HPC)): 113 % of control
T/C [12]: 103 % of control and 106 % of control
T/C [13]: 87 % of control

C#CCC1(OC(N)=O)CCCCC1
T/C [14]: 99 % of control
T/C [7]: 104 % of control
T/C [15]: 97 % of control
T/C [8]: 100 % of control
T/C [16]: 97 % of control
T/C [9]: 89 % of control
T/C (dose: 50.0 mg/kg/injection, schedule: Q04DX003 (ip), vehicle: Klucel (hydroxypropylcellulose) (HPC)): 98 % of control
T/C [10]: 87 % of control
T/C (dose: 100.0 mg/kg/injection, schedule: Q04DX003 (ip), vehicle: Klucel (hydroxypropylcellulose) (HPC)): 103 % of control
T/C (dose: 200.0 mg/kg/injection, schedule: Q04DX003 (ip), vehicle: Klucel (hydroxypropylcellulose) (HPC)): 95 % of control

C#CCOCC1CO1 (stereo not drawn)
T/C [17]: 97 % of control
T/C [18]: 91 % of control

COc1cc(NS(C)(=O)=O)ccc1Nc1c2ccccc2nc2c(C)cccc12
T/C (dose: 2.0 mg/kg/injection, schedule: Q01DX009 (ip), vehicle: saline): 151 % of control
T/C (dose: 2.5 mg/kg/injection, schedule: Q01DX009 (ip), vehicle: other): 180 % of control
T/C (dose: 4.0 mg/kg/injection, schedule: Q01DX009 (ip), vehicle: saline): 213 % of control
T/C (dose: 5.0 mg/kg/injection, schedule: Q01DX009 (ip), vehicle: other): 190 % of control
T/C (dose: 5.0 mg/kg/injection, schedule: Q01DX009 (ip), vehicle: saline with Tween-80): 167 % of control
T/C (dose: 10.0 mg/kg/injection, schedule: Q01DX001 (ip), vehicle: saline sonified): 163 % of control
T/C [15]: 160 % of control
T/C (dose: 20.0 mg/kg/injection, schedule: Q01DX001 (ip), vehicle: saline sonified): 166 % of control
T/C [16]: 200 % of control
T/C (dose: 60.0 mg/kg/injection, schedule: Q01DX001 (ip), vehicle: saline sonified): 183 % of control

CCCCCCCCCCCCOCCOCCOCC(N)=O
T/C [10]: 112 % of control
T/C (dose: 200.0 mg/kg/injection, schedule: Q01DX009 (ip), vehicle: saline): 109 % of control
T/C (dose: 400.0 mg/kg/injection, schedule: Q01DX009 (ip), vehicle: saline): 90 % of control

OCC1OC(n2cnc3cc(Cl)c(Cl)cc32)C(O)C1O (stereo not drawn)
T/C [11]: 101 % of control and 117 % of control
T/C (dose: 12.5 mg/kg/injection, schedule: Q01DX009 (ip), vehicle: saline with Tween-80): 100 % of control and 104 % of control and 113 % of control
T/C (dose: 25.0 mg/kg/injection, schedule: Q01DX009 (ip), vehicle: saline with Tween-80): 97 % of control and 113 % of control and 114 % of control
T/C [17]: 107 % of control and 116 % of control
T/C [18]: 102 % of control and 121 % of control

CCCCCCCCNc1cc2c3c(c1)CCCN3CCC2
T/C (dose: 0.75 mg/kg/injection, schedule: Q01DX009 (ip), vehicle: Klucel (hydroxypropylcellulose) (HPC)): 88 % of control
T/C (dose: 1.5 mg/kg/injection, schedule: Q01DX009 (ip), vehicle: Klucel (hydroxypropylcellulose) (HPC)): 97 % of control
T/C (dose: 6.0 mg/kg/injection, schedule: Q01DX009 (ip), vehicle: Klucel (hydroxypropylcellulose) (HPC)): 90 % of control

O=C(C[n+]1ccc2ccccc2c1)c1ccccc1
T/C [7]: 86 % of control
T/C [8]: 86 % of control
T/C [9]: 100 % of control

Reference: PubChem BioAssay AID192 (DTP/NCI, 2004)
